Reference: patent publication US8231888B2, “Isoxazolines for controlling invertebrate pests” (priority 2005, dated 2012)

Legend:
Assay type in all cases: in vivo
[1] = test system: western flower thrips (Frankliniella occidentalis); assay: Test D: control of western flower thrips on Soleil bean plant, contact and/or systemic; conditions: 6 days, 25° C.
Experimental: (§1) Test compounds were formulated using a solution containing 10% acetone, 90% water and 300 ppm X-77™ Spreader Lo-Foam Formula non-ionic surfactant containing alkylarylpolyoxyethylene, free fatty acids, glycols and isopropanol (Loveland Industries, Inc. Greeley, Colo., USA). The formulated compounds were applied in 1 mL of liquid through a SUJ2 atomizer nozzle with 1/8 JJ custom body (Spraying Systems Co. Wheaton, Ill., USA) positioned 1.27 cm (0.5 inches) above the top of each test unit. All experimental compounds in these tests were sprayed at 250 and/or 50 ppm, and the test was replicated three times. After spraying of the formulated test compound, each test unit was allowed to dry for 1 h and then a black, screened cap was placed on top. The test units were held for 6 days in a growth chamber at 25° C. and 70% relative humidity. Plant feeding damage was then visually assessed based on foliage consumed and a pest mortality rating was also counted and calculated for each test unit.
For evaluating control of the western flower thrips (Frankliniella occidentalis) through contact and/or systemic means, the test unit consisted of a small open container with a 5-7 day old Soleil Bean plant inside. Test compounds were formulated and sprayed at 250 and/or 50 ppm, and the test was replicated three times as described for Test A. After spraying, the test units were allowed to dry for 1 hour and then 22-27 adult thrips were added to each unit and then a black, screened cap was placed on top. The test units were held for 6 days at 25° C. and 45-55% relative humidity. A mortality rating was assessed along with a plant damage rating for each test unit.

[2] = test system: diamondback moth (Plutella xylostella); assay: Test A: control of diamondback moth on radish plant, foliar spray; conditions: sprayed at 250 and/or 50 ppm, 6 days, 25° C.; no asterisk (not limited to 250 ppm)
Excerpt: For evaluating control of diamondback moth (Plutella xylostella) the test unit consisted of a small open container with a 12-14-day-old radish plant inside. This was pre-infested with about 50 neonate larvae that were dispensed into the test unit via corn cob grits using a bazooka inoculator. The larvae moved onto the test plant after being dispensed into the test unit.
as §1

[3] = test system: fall armyworm (Spodoptera frugiperda); assay: Test B: control of fall armyworm on corn (maize) plant, foliar spray; conditions: sprayed at 250 and/or 50 ppm; no asterisk (not limited to 250 ppm)
Experimental: as §1
For evaluating control of fall armyworm (Spodoptera frugiperda) the test unit consisted of a small open container with a 4-5-day-old corn (maize) plant inside. This was pre-infested (using a core sampler) with 10-15 1-day-old larvae on a piece of insect diet. Test compounds were formulated and sprayed at 250 and/or 50 ppm as described for Test A and replicated three times. After spraying, the test units were maintained in a growth chamber and then the control efficacy was rated for each test unit as described for Test A.

[4] = sprayed at 250 and/or 50 ppm, no asterisk (not limited to 250 ppm)
[5] = asterisk: observed only at 250 ppm

Row | SMILES | control efficacy (20% or less feeding damage or 80% or more mortality) [1, 4] | control efficacy (20% or less feeding damage or 80% or more mortality) [2] | control efficacy (20% or less feeding damage or 80% or more mortality) [3] | control efficacy (20% or less feeding damage or 80% or more mortality) [1, 5]
1 | CCC(C)NC(=O)c1ccc(C2=NOC(c3cc(Cl)cc(Cl)c3)(C(F)(F)F)C2)c2ccccc12 (mixture of isomers) [Compound 32] | very good to excellent levels of control efficacy | very good to excellent levels of control efficacy | very good to excellent levels of control efficacy | 
2 | CC(NC(=O)c1ccc(C2=NOC(c3cc(Cl)cc(Cl)c3)(C(F)(F)F)C2)c2ccccc12)c1ccccn1 (stereo not drawn) [Compound 21] | very good to excellent levels of control efficacy | very good to excellent levels of control efficacy | very good to excellent levels of control efficacy | 
3 | O=C(CNC(=O)c1ccc(C2=NOC(c3cc(Cl)cc(Cl)c3)(C(F)(F)F)C2)c2ccccc12)NCC(F)(F)F (stereo not drawn) [Compound 51] | very good to excellent levels of control efficacy | very good to excellent levels of control efficacy | very good to excellent levels of control efficacy | 
4 | O=C(N[C@H]1CCc2ccccc21)c1ccc(C2=NOC(c3cc(Cl)cc(Cl)c3)(C(F)(F)F)C2)c2ccccc12 (stereo partly drawn) [Compound 39] |  | very good to excellent levels of control efficacy | very good to excellent levels of control efficacy | very good to excellent levels of control efficacy
5 | CCNC(=O)c1ccc(C2=NOC(c3cc(Cl)cc(Cl)c3)(C(F)(F)F)C2)c2ccccc12 (stereo not drawn) [Compound 10] | very good to excellent levels of control efficacy | very good to excellent levels of control efficacy | very good to excellent levels of control efficacy | 
6 | CCOC(=O)CNC(=O)c1ccc(C2=NOC(c3cc(Cl)cc(Cl)c3)(C(F)(F)F)C2)c2ccccc12 (stereo not drawn) [Compound 42] | very good to excellent levels of control efficacy | very good to excellent levels of control efficacy | very good to excellent levels of control efficacy | 
7 | COC(=O)[C@@H](NC(=O)c1ccc(C2=NOC(c3cc(Cl)cc(Cl)c3)(C(F)(F)F)C2)c2ccccc12)C(C)C (stereo partly drawn) [Compound 49] | very good to excellent levels of control efficacy | very good to excellent levels of control efficacy | very good to excellent levels of control efficacy | 
8 | O=C(NCCO)c1ccc(C2=NOC(c3cc(Cl)cc(Cl)c3)(C(F)(F)F)C2)c2ccccc12 (stereo not drawn) [Compound 35] | very good to excellent levels of control efficacy | very good to excellent levels of control efficacy | very good to excellent levels of control efficacy | 
9 | C=CCNC(=O)c1ccc(C2=NOC(c3cc(Cl)cc(Cl)c3)(C(F)(F)F)C2)c2ccccc12 (stereo not drawn) [Compound 18] | very good to excellent levels of control efficacy | very good to excellent levels of control efficacy | very good to excellent levels of control efficacy | 
10 | COCCNC(=O)c1ccc(C2=NOC(c3cc(Cl)cc(Cl)c3)(C(F)(F)F)C2)c2ccccc12 (stereo not drawn) [Compound 41] | very good to excellent levels of control efficacy | very good to excellent levels of control efficacy | very good to excellent levels of control efficacy | 
11 | O=C(NNc1ccccc1)c1ccc(C2=NOC(c3cc(Cl)cc(Cl)c3)(C(F)(F)F)C2)c2ccccc12 (stereo not drawn) [Compound 46] |  | very good to excellent levels of control efficacy | very good to excellent levels of control efficacy | very good to excellent levels of control efficacy
12 | CN(C)CCNC(=O)c1ccc(C2=NOC(c3cc(Cl)cc(Cl)c3)(C(F)(F)F)C2)c2ccccc12.Cl (stereo not drawn) [Compound 14] |  | very good to excellent levels of control efficacy | very good to excellent levels of control efficacy | very good to excellent levels of control efficacy
13 | O=C(NCc1ccccn1)c1ccc(C2=NOC(c3cc(Br)cc(Br)c3)(C(F)(F)F)C2)c2ccccc12 (stereo not drawn) [Compound 26] | very good to excellent levels of control efficacy | very good to excellent levels of control efficacy | very good to excellent levels of control efficacy | 
14 | COC(=O)N(Cc1ccccn1)C(=O)c1ccc(C2=NOC(c3cc(Cl)cc(Cl)c3)(C(F)(F)F)C2)c2ccccc12 (stereo not drawn) [Compound 11] | very good to excellent levels of control efficacy | very good to excellent levels of control efficacy | very good to excellent levels of control efficacy | 
15 | CC(NC(=O)c1ccc(C2=NOC(c3cc(Cl)cc(Cl)c3)(C(F)(F)F)C2)c2ccccc12)c1ccccc1 (mixture of isomers) [Compound 15] |  | very good to excellent levels of control efficacy | very good to excellent levels of control efficacy | very good to excellent levels of control efficacy
16 | CC(NC(=O)c1ccc(C2=NOC(c3cc(Cl)cc(Cl)c3)(C(F)(F)F)C2)c2ccccc12)C(C)(C)C (stereo not drawn) [Compound 34] |  | very good to excellent levels of control efficacy | very good to excellent levels of control efficacy | very good to excellent levels of control efficacy
17 | O=C(NCc1ccccn1)c1ccc(C2=NOC(c3cc(Cl)cc(Cl)c3)(C(F)(F)F)C2)c2ccncc12 (stereo not drawn) [Compound 104, 5-[5-(3,5-dichlorophenyl)-4,5-dihydro-5-(trifluoromethyl)-3-isoxazolyl]-N-(2-pyridinylmethyl)-8-isoquinolinecarboxamide] | very good to excellent levels of control efficacy | very good to excellent levels of control efficacy | very good to excellent levels of control efficacy | 
18 | CN(C)CCNC(=O)c1ccc(C2=NOC(c3cc(Cl)cc(Cl)c3)(C(F)(F)F)C2)c2ccccc12 (stereo not drawn) [Compound 13] |  | very good to excellent levels of control efficacy | very good to excellent levels of control efficacy | very good to excellent levels of control efficacy
19 | O=C(NCC(F)(F)F)c1ccc(C2=NOC(c3cc(Cl)cc(Cl)c3)(C(F)(F)F)C2)c2ccccc12 (stereo not drawn) [Compound 1] | very good to excellent levels of control efficacy | very good to excellent levels of control efficacy | very good to excellent levels of control efficacy | 
20 | CC(C)NC(=O)c1ccc(C2=NOC(c3cc(Cl)cc(Cl)c3)(C(F)(F)F)C2)c2ccccc12 (stereo not drawn) [Compound 16] | very good to excellent levels of control efficacy | very good to excellent levels of control efficacy | very good to excellent levels of control efficacy | 
